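Following 48 hours of exposure in 96-well plates, responses at five concentrations were used to interpolate endpoints linearly. GI50: concentration for 50% inhibition of growth.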 Calls of active or inactive are those of the source. No stated cut-off is given here; in the data, active = GI50 up to about 1.1 µM and inactive = higher.
Key:
Experiment in all cases: growth of human tumour cells (NCI), 48 h
DMS-114 = tested on: DMS-114
HOP-18 = tested on: HOP-18
DLD-1 = tested on: DLD-1
M19-MEL = tested on: M19-MEL
RXF 631 = tested on: RXF 631
NCI/ADR-RES = tested on: NCI/ADR-RES
BT-549 = tested on: BT-549
T47D = tested on: T47D
MCF7 = tested on: MCF7

Structure (SMILES)	GI50 (DMS-114)	GI50 (HOP-18)	GI50 (DLD-1)	GI50 (M19-MEL)	GI50 (RXF 631)	GI50 (NCI/ADR-RES)	GI50 (BT-549)	GI50 (T47D)	GI50 (MCF7)
COc1ccc(-c2cc(O)c3cc(OC)ccc3n2)cc1	> 100 µM (inactive)	> 100 µM (inactive)	> 100 µM (inactive)	> 100 µM (inactive)					
COC(=O)C(=O)C(C(=O)C(=O)Nc1ccc([N+](=O)[O-])cc1C#N)c1nc2ccc([N+](=O)[O-])cc2nc1O (configuration not stated)	> 100 µM (inactive)	34.8 µM (inactive)	> 100 µM (inactive)	> 100 µM (inactive)					
CC1=C(C(=O)CC(=O)C(=O)Nc2ccccc2C(F)(F)F)Sc2ccccc2N1	32.6 µM (inactive)		76 µM (inactive)		86.5 µM (inactive)				
CC12C/C(=C\c3ccccc3)C(=O)C3C1CCCC32	41.6 µM (inactive)	> 100 µM (inactive)	79.3 µM (inactive)	58.6 µM (inactive)	> 100 µM (inactive)				
CCOC(=O)c1ccc(/N=N/c2cc(C(=O)OCC)ccc2O)cc1	> 100 µM (inactive)	> 100 µM (inactive)	> 100 µM (inactive)	> 100 µM (inactive)					
CC1(C)C2C/C(=C\c3ccccc3)C(=O)C1C2 (configuration not stated)	68.1 µM (inactive)		83.4 µM (inactive)	> 100 µM (inactive)	> 100 µM (inactive)				
O=c1c2cc(Br)cc(Br)c2nc(CCCl)n1CCO	42.4 µM (inactive)		> 100 µM (inactive)	94.8 µM (inactive)	> 100 µM (inactive)				
CC(=O)OCCOCNC(=S)N/N=C/c1ccc(Br)s1	33.3 µM (inactive)	> 100 µM (inactive)	> 81.8 µM (inactive)	> 100 µM (inactive)					
COc1ccc(/N=C(/[N-]n2c(=O)c(C)nn(C)c2=S)N(c2ccc(OC)cc2)c2n[n+]3c(=O)c(C)nn(C)c3s2)cc1	> 100 µM (inactive)	> 100 µM (inactive)	> 100 µM (inactive)	> 100 µM (inactive)					
CS(=O)(=O)N(CCC#N)c1ccc(/C=N/NC(=O)CC(=O)Nc2cccc(Cl)c2)cc1	> 100 µM (inactive)	> 100 µM (inactive)	> 100 µM (inactive)	> 100 µM (inactive)					
C/C(=N\NC(=S)N1CCN(c2ccccn2)CC1)c1ncccn1	0.00233 µM (active)	1.64 µM (inactive)	0.00272 µM (active)	0.638 µM (active)		17.9 nM (active)	4.67 µM (inactive)	95.3 nM (active)	10.8 nM (active)
Cc1cc(NS(=O)(=O)c2ccc(Nc3c4ccccc4nc4c(C(=O)N5CCN(CCO)CC5)cccc34)cc2)no1	> 100 µM (inactive)	> 100 µM (inactive)	> 100 µM (inactive)	> 100 µM (inactive)					
N#Cc1cc([N+](=O)[O-])ccc1NC(=O)C(=O)Nc1n[nH]c(N)n1	> 100 µM (inactive)		> 100 µM (inactive)	> 100 µM (inactive)	> 100 µM (inactive)				
O=C1N[C@@H]([C@H]2CC[C@H](Cl)CN2)C(=O)N[C@H]1[C@H]1CC[C@H](Cl)CN1	0.269 µM (active)	5.86 µM (inactive)	4.92 µM (inactive)	2.47 µM (inactive)		902 nM (active)	1.63 µM (inactive)	297 nM (active)	195 nM (active)
CCOC(=O)C/C(N)=C(\C#N)C(=O)OCC	> 100 µM (inactive)	> 100 µM (inactive)	> 100 µM (inactive)	> 100 µM (inactive)	> 100 µM (inactive)				
CCOC(OC(C)=O)[C@@H]1C=C[C@H](C)N(c2ccc([N+](=O)[O-])cc2)O1 (some centres not stated)	4.69 µM (inactive)	8.79 µM (inactive)	2.59 µM (inactive)	2.14 µM (inactive)	4.98 µM (inactive)				
Nc1ccccc1C(=O)/C=C/c1ccccc1O	29.8 µM (inactive)	8.34 µM (inactive)	47.2 µM (inactive)	72.3 µM (inactive)	55.8 µM (inactive)				
CC(=O)NC(CCCNCc1ccccc1)C(=O)NCc1ccccc1 (configuration not stated)	> 100 µM (inactive)		> 100 µM (inactive)	> 100 µM (inactive)	> 100 µM (inactive)				
O=C(C=C1SCCS1)/C=C\c1ccc(Cl)cc1			> 100 µM (inactive)	> 100 µM (inactive)	> 100 µM (inactive)				
CS(=O)(=O)c1nc(N)nc2nc[nH]c12	> 100 µM (inactive)	> 100 µM (inactive)	> 100 µM (inactive)	> 100 µM (inactive)					
CC(=O)CC(=O)Nc1ccccc1[N+](=O)[O-]	> 100 µM (inactive)	> 100 µM (inactive)	> 100 µM (inactive)	> 100 µM (inactive)					
Cn1c(=O)c2ccc(-c3ccc(Br)cc3)nc2n(C)c1=O	> 100 µM (inactive)	> 100 µM (inactive)	> 100 µM (inactive)	> 100 µM (inactive)	> 100 µM (inactive)				
COc1cc([C@@H]2c3cc4c(cc3[C@@H](NCc3ccccc3F)C3COC(=O)[C@@H]32)OCO4)cc(OC)c1O (some centres not stated)	3.45 µM (inactive)	> 100 µM (inactive)	11.9 µM (inactive)	3.47 µM (inactive)	2.18 µM (inactive)				
CO[C@]12CCC(=O)N1C=Cc1c2[nH]c2ccccc12	> 100 µM (inactive)	> 100 µM (inactive)	> 100 µM (inactive)	> 100 µM (inactive)					
Cc1nc2c(o1)/C(=N\c1ccccc1)c1nc(C)oc1/C2=N/c1ccccc1	25.5 µM (inactive)	17.3 µM (inactive)	25.5 µM (inactive)	21.6 µM (inactive)					
CCCCCCCCCCCCCCCCOP(=O)(O)Oc1ccc(/C=C\c2ccc(OP(=O)(O)OCCCCCCCCCCCCCCCC)cc2)cc1	10.1 µM (inactive)	70.3 µM (inactive)	> 100 µM (inactive)	38.7 µM (inactive)	48.5 µM (inactive)				
